In patent US5216014A, “Furo-coumarinsulfonamides as protein kinase C inhibitors” (Sphinx Pharmaceuticals Corporation, priority 1991, dated 1993):

Columns and labels:
[1] = test system: neutrophils; assay: Neutrophil Superoxide Anion (O2 -) Release Assay; type: cell-based; conditions: Homo sapiens, 0.5 h, PMA-stimulated, 37° C. for 30 min
Experimental: Neutrophils are isolated form whole blood collected from human volunteers. All reagent materials are obtained from Sigma Chemical Company with the exception of isotonic saline (Travenol Laboratories, Inc., Deerfield, Ill.) and lymphocyte separation medium (Organon Teknika, Durham, N.C.).
Whole blood is drawn and mixed with sodium heparin (final conc. 10 units/ml) to prevent clotting. An equal volume of dextran (3.0%) in isotonic saline is added, mixed, and allowed to settle for 30 min to bind red blood cells (RBC). Supernatant is removed, underlayered with lymphocyte separation medium and centrifuged for 40 min at 400 xg in a centrifuge (Beckman GPR, Norcross, Ga.). The pellet is alternately resuspended in 0.2% and 1.6% NaCl to lyse RBCs before washing with Hank's Balanced Salt Solution (HBSS). The washed pellet is resuspended in 10 ml HBSS and placed on ice before counting on a hemacytometer.
The neutrophil cell concentration is adjusted to 2×10^6 cells/ml with HBSS before adding 0.8 ml cells to 12×75 mm polypropylene test tubes (Fisher Scientific). Test agents are diluted to determine dose response and added at 10X final concentration at a volume of 0.1 ml/tube in duplicate. Then 10X concentrations of cytochrome C (15 mg/ml) with catalase (3000 units/ml) either alone or containing 25 ng/ml phorbol 12-myristate 13-acetate (PMA) are added at a volume of 0.1 ml/tube and incubated at 37° C. for 30 min before stopping the reaction by placing tubes on ice. Tubes are then centrifuged at 900 xg for 10 min, 0.5 ml supernatant is removed and added to 0.5 ml H2 O in a microcuvette. Optical density (OD) of cytochrome c is read in a spectrophotometer (Shimadzu) at 550 nm. The ΔOD of cytochrome c is obtained between PMA-stimulated and non-stimulated tubes, and the dose responses of the test agents are compared to the positive controls (which contain HBSS in place of test agents). PMA stimulates O2 production which reduces cytochrome c. Reducing cytochrome c increases its absorbance, and the change in OD of cytochrome c is proportional to the amount of O2 produced by PMA stimulation. Inhibition of the O2 - burst by test compounds of the invention is seen as a reduction in the change in optical density. Inhibition is expressed as IC50 μM and is the amount of test compound that will inhibit fifty percent of the PMA-stimulated respiratory burst, i.e. O2 production.

[2] = Solubility remark in tumor cell growth test; type: physicochemical; design: key: *: indicates that the compound was too insoluble to test; conditions: footnote mark in Table 6
[3] = test system: human keratinocytes (NHEK cells); assay: Human Keratinocyte Inhibition (3H-thymidine incorporation); type: cell-based
Experimental: Proliferating keratinocytes (NHEK cells purchased from Clonetics, Inc., San Diego, Calif.) in second passage were grown in Keratinocyte Growth Medium (KGM) (Clonetics, Inc.) Cells are trypsinized (0.025% trypsin, Clonetics), counted with a hemacytometer (Scientific Products), and seeded at a concentration of 2,500 cells/well in a 96 well microtiter plate. After allowing cells to attach to the surface overnight, the culture medium is aspirated and replaced with […] of fresh KGM. Test agents are evaluated and IC50,s are ^3 H-thymidine determined according to the ^3 H-thymidine incorporation procedures described as in Example 8. IC50 is the concentration of test compound required to inhibit fifty percent of the incorporation of H-thymidine into proliferating cells not exposed to test agent.

[4] = biological target: cAMP dependent protein kinase (PKA); assay: cAMP Dependent Protein Kinase (PKA) Assay; type: biochemical; conditions: 10 min; catalytic subunit of PKA
Experimental: Compounds found to be inhibitors of protein kinase C activity are tested for inhibitory activity against protein kinase (PKA). This enzyme, like protein kinase C, plays an important role in cell-cell communication and is activated by a second messenger, cAMP. Secondary screening against PKA is useful for ascertaining the selectivity of the compounds of the invention. A cAMP dependent protein kinase assay utilizes a catalytic subunit of PKA (Sigma Chemical Company, St. Louis, Missouri) that is mixed with buffer before addition of the inhibitor in dimethylsulfoxide (DMSO). The assay is started by the addition of ^32 P-ATP and the reaction is allowed to proceed for 10 min before stopping with 25% trichloroacetic acid (TCA) and 1.0 mg/ml bovine serum albumin (BSA). The phosphorylated protein is isolated by filtration and the radioactivity is counted in a beta scintillation counter.
PKA assay results are shown in Table 5 in the column labeled PKA. […] The tested compounds of the invention are selective for protein kinase C, and have no effect on cAMP dependent protein kinase. This is seen by a comparison of Tables 3 and 5. […] Thus, the compounds of the invention should have minimal or no effect on the metabolic pathways associated with stimulation of protein kinase by cAMP.

[5] = biological target: protein kinase C; assay: Protein Kinase C Inhibition (PKC assay, histone H1 phosphorylation); type: biochemical; conditions: 10 minutes; histone H1 substrate; rat brain enzyme
Experimental: The protein kinase C (PKC) assay is designed to duplicate the in vivo conditions required for protein kinase C function. Therefore, pH, salt and cofactor concentrations are similar to physiologic levels. A lysine rich histone H1 is used in the assay as the phosphorylation acceptor protein because it is readily available and serves as a good substrate for protein kinase C. Enzyme is prepared from rat brain and is purified to apparent homogeneity as determined by a single band on silver stained sodium dodeceyl sulfate (SDS)-polyacrylamide.
In the screening assay, phosphatidylserine (PS) and diacylglycerol (DAG) are co-sonicated to form unilamellar and multilamellar vesicles. The concentrations of lipids in the assay are suboptimal to maximize the detection potential for inhibitors. Potential inhibitor compounds are added to the assay in dimethylsulfoxide (DMSO) at three concentrations to give final inhibitor concentrations of 4.3, 43 and 218 μm, respectively. The assay is started with the addition of enzyme and stopped after 10 minutes by the addition of a 25% trichloroacetic acid (TCA) solution and 1.0 mg/ml bovine serum albumin (BSA). The radioactive histone product is retained and washed on glass fiber filters that allow the unreacted ^32 P-ATP to pass through. The amount of phosphorylation is determined by the radioactivity as measured in a scintillation counter. Controls are included in every assay to measure: background activity in the absence of enzyme, activity in the absence of lipids, and the maximum enzyme activity with saturating levels of the activator lipids.
HEPES is N-[2-hydroxyethyl] piperazine-N'-[2-ethanesulfonic acid] and EGTA is Ethylene-bis(oxyethylenenitrilo) tetraacetic acid.
Protein kinase C assay results are shown in Table 3 in the column labeled PKC. Results are shown as IC50, which is the concentration of test compound needed to inhibit 50% of the protein kinase C activity as compared with levels of protein kinase C activity in controls.

[6] = test system: MCF-7; assay: Human Tumor Cell Growth Inhibition (3H-thymidine uptake); type: cell-based; conditions: MCF7; MCF-7 human breast tumor cell line; 18-24 hrs; read-out: MCF-7 (IC50, 3H-thymidine incorporation)
Source text: MCF-7 a human breast tumor cell line and MCF-7/ADR an adriamycin resistant line of MCF-7 cells were obtained from the National Cancer Institute, Frederick, Md. CEM cells (ATCC accession number CCL 119) were obtained from the American Type Culture Collection, Rockville, Md.
Human tumor cells are trypsinized (0.05% trypsin, GIBCO), counted with a hemacytometer and seeded at a concentration of 10,000 cells/well in a 96 well microtiter plate. After allowing cells to attach to the surface overnight, the culture medium is aspirated and replaced with 100 μl of fresh medium. Test agents are diluted to determine dose response at 2X final concentration and added in quadruplicate at 100 μl/well to bring the total volume of each well to 200 μl. The microtiter plate is then incubated at 3 37° C. 5% CO2 overnight (18-24 hrs) before ^3 H-thymidine is added at a concentration of 0.5 μCi/well in 50 μl culture medium. The plate is incubated again for 4 hrs under the same conditions as above. Supernatant is then aspirated and 50 μl trypsin (0.05%, GIBCO) is added to each well. Cells are checked microscopically to determine detachment from surfaces, and plates are then harvested with a cell harvester (PHD, Cambridge Technology, Inc.) Filter papers corresponding to wells are placed in scintillation vials and counted to determine the amount of ^3 H-thymidine incorporated by the cells. […]

COc1c2occc2c(S(=O)(=O)NCCCNCCCCNCCCN)c2ccc(=O)oc12 [Compound 1, N-[3-[4-(3-amino-1-propyl)-amino-1-butyl]-amino-1-propyl]-s-methyl-furo[3,2-g]coumarin-5-sulfonamide]
IC50 [1]: > 10 µM
MCF-7: too insoluble to test [2]: *
IC50 [3]: 11.9 µM
IC50 [4]: > 218 µM
IC50 [5]: 30 µM

COc1c2occc2c(S(=O)(=O)NCCCNCCCCNCCCNS(=O)(=O)c2c3ccoc3c(OC)c3oc(=O)ccc23)c2ccc(=O)oc12 [Compound 2]
IC50 [1]: > 10 µM
MCF-7: too insoluble to test [2]: *
IC50 [3]: 1.4 µM
IC50 [4]: > 218 µM
IC50 [5]: 24 µM

COc1c2occc2c(S(=O)(=O)NCCCCNCCCNS(=O)(=O)c2c3ccoc3c(OC)c3oc(=O)ccc23)c2ccc(=O)oc12 [Compound 3]
IC50 [6]: 5.5 µM
IC50 [1]: > 10 µM
IC50 [3]: 15.4 µM
IC50 [4]: > 218 µM
IC50 [5]: 21 µM

COc1c2occc2c(S(=O)(=O)NCCCN(C)CCCNS(=O)(=O)c2c3ccoc3c(OC)c3oc(=O)ccc23)c2ccc(=O)oc12 [Compound 4]
IC50 [6]: 11 µM
IC50 [1]: > 10 µM
IC50 [3]: 9.5 µM
IC50 [4]: > 218 µM
IC50 [5]: 17 µM

COc1c2occc2c(S(=O)(=O)NCCCNCCCNS(=O)(=O)c2c3ccoc3c(OC)c3oc(=O)ccc23)c2ccc(=O)oc12 [Compound 5]
IC50 [5]: 33 µM
